Tests used:
[1] = tested on: mutant (Nal B, H744) of P. aeruginosa; assay: microbe, parasite or virus in culture; type: cell-based
Summary of the method: (§1)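 Checkerboard titration in Mueller Hinton broth, peptide against carbenicillin or ciprofloxacin, inoculum 10 μl of 10^−4 dilution of overnight culture, 18-24 h at 37 °C. Combination MIC is the lowest concentration reducing growth >50%. FIC index = A/MIC A + B/MIC B, with ≤~0.5 synergy, 1.0 additivity, >1.0 antagonism.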

[2] = tested on: β-lactamase derepressed mutant (H547) of P. aeruginosa; assay: microbe, parasite or virus in culture; type: cell-based; settings: P. aeruginosa H547
Summary of the method: as §1

[3] = tested on: Pseudomonas aeruginosa strain M2; assay: Protection of neutropenic CD-1 mice challenged with Pseudomonas aeruginosa; type: in vivo; set-up: Survival post bacterial challenge, surviving mice: reference not given here; settings: for Survival (%) post bacterial challenge: PBS 8
Summary of the method: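 Neutropenia induced by three i.p. cyclophosphamide doses ([…], alternate days); mice then infected i.p. with 200-300 organisms/mouse. Peptides (200 µg/mouse = 8 mg/kg) in buffered citrate given i.p. at 30 min (single) or 30 min and 16 hrs (double) post-challenge; PBS control; mean of 2 experiments.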

S. aureus K147 = assay: MIC, broth microdilution assay in polypropylene microtiter trays; type: cell-based; settings: average of three separate experiments
Summary of the method: (§2)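 Read-out: OD. MIC = lowest peptide conc. giving no OD change over the defined time.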

P. aeruginosa = assay: as above; type: cell-based; settings: average of three separate experiments
Summary of the method: as §2

S. aureus = assay: as above; type: cell-based; settings: average of three separate experiments
Summary of the method: as §2

E. coli [4] = assay: as above; type: cell-based; settings: average of three separate experiments
Summary of the method: as §2

Salmonella typhi = assay: Synergy study (checkerboard titration) with hen white lysozyme; type: cell-based
P. aeruginosa (H103) = assay: as above; type: cell-based
E. coli [5] = assay: as above; type: cell-based
[6] = cationic peptide concentration, combined with lysozyme
[7] = lysozyme concentration, combined with the peptide

Compound: CC[C@H](C)[C@H](NC(=O)CNC(=O)[C@@H](NC(=O)[C@H](CCCCN)NC(=O)[C@H](CCCCN)NC(=O)[C@H](Cc1ccccc1)NC(=O)[C@H](CC(C)C)NC(=O)[C@H](CCCCN)NC(=O)[C@H](Cc1c[nH]c2ccccc12)NC(=O)[C@@H](N)CCCCN)[C@@H](C)CC)C(=O)NCC(=O)N[C@@H](C)C(=O)N[C@H](C(=O)N[C@@H](CC(C)C)C(=O)N[C@@H](CCCCN)C(=O)N[C@H](C(=O)N[C@@H](CC(C)C)C(=O)N[C@@H](CCCCN)C(=O)N[C@H](C(=O)N[C@@H](CC(C)C)C(=O)N[C@H](C(=O)N[C@H](C(=O)NCC(=O)N[C@@H](CC(C)C)C(=O)N1CCC[C@H]1C(=O)N[C@@H](C)C(=O)N[C@@H](CC(C)C)C(=O)N[C@@H](CCCCN)C(=O)N[C@@H](CC(C)C)C(=O)N[C@H](C(=O)N[C@@H](CC(C)C)C(=O)N[C@@H](CCCCN)C(=O)O)[C@@H](C)O)[C@@H](C)O)[C@@H](C)O)C(C)C)C(C)C)C(C)C [CM4]
- (B) MIC of Cipro when combined with peptide ([1]; ciprofloxacin with peptide at concentration (A), Nal B, H744): .125 µg/mL
- FIC index ([1]; peptide + ciprofloxacin, Nal B, H744): .75
- MIC A MIC of Peptides ([1]; peptide alone, P. aeruginosa mutant Nal B, H744 (Table 5)): 4 µg/mL
- (A) Peptide doses together with Cipro ([1]; peptide concentration in combination with ciprofloxacin, Nal B, H744): 1 µg/mL
- (B) MIC of Carb when combined with peptide ([2]; Carbenicillin with peptide at concentration (A)): 64 µg/mL
- MIC A MIC of Peptides ([2]; peptide alone): 4 µg/mL
- (A) Peptide doses together with Carb ([2]; peptide concentration in combination with Carbenicillin): 1 µg/mL
- Survival post bacterial challenge, surviving mice ([3]; double dose (200 μg per mouse i.p. at 30 min and 16 hrs), 16 hr): 14
- Survival post bacterial challenge, surviving mice ([3]; double dose, 24 hr): 14
- Survival post bacterial challenge, surviving mice ([3]; double dose, 41 hr): 7
- Survival post bacterial challenge, surviving mice ([3]; double dose, 48 hr): 2
- Survival post bacterial challenge, surviving mice ([3]; double dose, 64 hr): 2
- Survival (%) post bacterial challenge ([3]; double dose, 64 hr): 14%
- Survival post bacterial challenge, surviving mice ([3]; double dose, 72 hr): 2
- Survival (%) post bacterial challenge ([3]; double dose, 72 hr): 14%
- Survival post bacterial challenge, surviving mice ([3]; double dose, 96 hr): 2
- Survival (%) post bacterial challenge ([3]; double dose, 96 hr): 14%
- Survival post bacterial challenge, surviving mice ([3]; single dose (200 μg per mouse i.p. at 30 min), 16 hr): 15
- Survival post bacterial challenge, surviving mice ([3]; single dose, 24 hr): 15
- Survival post bacterial challenge, surviving mice ([3]; single dose, 41 hr): 9
- Survival post bacterial challenge, surviving mice ([3]; single dose, 48 hr): 3
- Survival post bacterial challenge, surviving mice ([3]; single dose, 64 hr): 1
- Survival (%) post bacterial challenge ([3]; single dose, 64 hr): 6%
- Survival post bacterial challenge, surviving mice ([3]; single dose, 72 hr): 1
- Survival (%) post bacterial challenge ([3]; single dose, 72 hr): 6%
- Survival post bacterial challenge, surviving mice ([3]; single dose, 96 hr): 1
- Survival (%) post bacterial challenge ([3]; single dose, 96 hr): 16%
- MIC S. aureus K147 (S. aureus K147): 8 µg/mL
- MIC P. aeruginosa (P. aeruginosa): 4 µg/mL
- MIC S. aureus (S. aureus): 8 µg/mL
- MIC E. coli (E. coli [4]): 4 µg/mL
- FIC for combination of cationic peptide and lysozyme (Salmonella typhi): 0.50
- Lowest [CP] showing synergy (Salmonella typhi; [6]): 2.61 µg/mL
- Lowest [Lyso] showing synergy (Salmonella typhi; [7]): 7.8 µg/mL
- FIC for combination of cationic peptide and lysozyme (P. aeruginosa (H103)): 0.75
- Lowest [CP] showing synergy (P. aeruginosa (H103); [6]): 2.6 µg/mL
- Lowest [Lyso] showing synergy (P. aeruginosa (H103); [7]): 250 µg/mL
- FIC for combination of cationic peptide and lysozyme (E. coli [5]): 0.07
- Lowest [CP] showing synergy (E. coli [5]; [6]): 1.3 µg/mL
- Lowest [Lyso] showing synergy (E. coli [5]; [7]): 7.8 µg/mL

From patent US6818407B2, “Anti-endotoxic antimicrobial cationic peptides and methods of use therfor” (priority 1998, dated 2004)
